Consider three compounds from PMC7565988, “Insight into the Anticancer Activity of Copper(II) 5-Methylenetrimethylammonium-Thiosemicarbazonates and Their Interaction with Organic Cation Transporters” (Biomolecules, 2020).

Series [1] concerns SH-SY5Y neuroblastoma cells. As to the kind of experiment: MTT cytotoxicity (24 h) / antiproliferation (72 h) assay. Type of series: cell-based, human. As to conditions: MTT. The procedure:
SH-SY5Y (ATCC® CRL-2266™) neuroblastoma cell line was purchased from LGC Promochem, Teddington, UK. The cell line was cultured in Eagle’s Minimal Essential Medium (EMEM, containing 4.5 g/L glucose) supplemented with a non-essential amino acid mixture, a selection of vitamins and 10% heat-inactivated foetal bovine serum. The cell line was incubated at 37 °C, in a 5% CO2, 95% air atmosphere.
(§1) In the study non-cancerous human embryonic lung fibroblast MRC-5, human colonic adenocarcinoma cell line (doxorubicin-sensitive Colo 205, multidrug resistant Colo 320) and neuroblastoma cell line SH-SY5Y were used to determine the effect of compounds on cell growth. The effects of increasing concentrations of compounds on cell growth were tested in 96-well flat-bottomed microtiter plates. The compounds were diluted in a volume of 100 μL of medium.
The adherent human embryonal lung fibroblast and SH-SY5Y neuroblastoma cells were cultured in 96-well flat-bottomed microtiter plates, using EMEM supplemented with 10% heat-inactivated foetal bovine serum. The density of the cells was adjusted to 2 × 10^4 cells in 100 μL per well, the cells were seeded for 24 h at 37 °C, 5% CO2, then the medium was removed from the plates containing the cells, and the dilutions of compounds previously made in a separate plate were added to the cells in 200 μL.
(§2) The culture plates were incubated at 37 °C for 24 h; at the end of the incubation period, 20 μL of MTT (thiazolyl blue tetrazolium bromide, Sigma) solution (from a stock solution of 5 mg/mL) were added to each well. After incubation at 37 °C for 4 h, 100 μL of sodium dodecyl sulfate (SDS) (Sigma) solution (10% in 0.01 M HCI) were added to each well and the plates were further incubated at 37 °C overnight. Cell growth was determined by measuring the optical density (OD) at 540/630 nm with Multiscan EX ELISA reader (Thermo Labsystems, Cheshire, WA, USA). […] Curves were fitted by GraphPad Prism software using the sigmoidal dose-response model (comparing variable and fixed slopes).
(§3) The method is similar to the one described in the assay for cytotoxic effect. […] The culture plates were incubated at 37 °C for 72 h and after the incubation time, the plates were stained with MTT according to the previous experimental protocol described for the cytotoxicity assay.

Series [2] has as its system Colo 205 doxorubicin-sensitive colonic adenocarcinoma cells. The description is as above. In kind it is cell-based, human. As to conditions: read-out: Colo205 IC50. The procedure: Human doxorubicin-sensitive Colo 205 (ATCC-CCL-222) and multidrug resistant Colo 320 (overexpressing ABCB1 (MDR1)-LRP (ATCC-CCL-220.1)) colonic adenocarcinoma cell lines were purchased from LGC Promochem, Teddington, UK. The cells were cultured in RPMI 1640 medium supplemented with 10% heat-inactivated fetal bovine serum, 2 mM L-glutamine, 1 mM Na-pyruvate and 100 mM Hepes. The cell lines were incubated at 37 °C, in a 5% CO2, 95% air atmosphere. The semi-adherent human colon cancer cells were detached with Trypsin-Versene (EDTA) solution for 5 min at 37 °C.
as §1
In case of the colonic adenocarcinoma cells, the two-fold serial dilutions of compounds were prepared in 100 μL of RPMI 1640, horizontally. The semi-adherent colonic adenocarcinoma cells were treated with Trypsin–Versene (EDTA) solution. The cells were adjusted to a density of 2 × 10^4 cells in 100 μL of RPMI 1640 medium, and were added to each well, with the exception of the medium control wells. The final volume of the wells containing compounds and cells was 200 μL.
as §2, §3

The target in series [3] is T1, OCT2 (Homo sapiens, UniProt O15244).
T1 construct: expressed in transfected cells
T1 sequence (O15244 1-555): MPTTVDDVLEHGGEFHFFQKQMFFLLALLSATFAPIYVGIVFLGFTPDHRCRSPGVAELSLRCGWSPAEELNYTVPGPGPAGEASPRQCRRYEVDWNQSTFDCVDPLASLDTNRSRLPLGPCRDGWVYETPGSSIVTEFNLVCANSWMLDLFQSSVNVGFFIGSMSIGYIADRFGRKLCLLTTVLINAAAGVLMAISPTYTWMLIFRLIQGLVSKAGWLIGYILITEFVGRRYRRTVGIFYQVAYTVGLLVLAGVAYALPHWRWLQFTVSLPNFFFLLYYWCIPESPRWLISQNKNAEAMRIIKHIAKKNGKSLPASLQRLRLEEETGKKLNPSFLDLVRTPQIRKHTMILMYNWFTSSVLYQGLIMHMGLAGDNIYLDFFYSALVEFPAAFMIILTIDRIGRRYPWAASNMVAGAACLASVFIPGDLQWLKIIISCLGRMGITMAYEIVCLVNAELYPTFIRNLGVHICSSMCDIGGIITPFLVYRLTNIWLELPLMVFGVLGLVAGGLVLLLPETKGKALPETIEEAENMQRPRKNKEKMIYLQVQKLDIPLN
More on the design: method as in PMID 14576340. As to conditions: reference inhibitor; cited from earlier work.

The target in series [4] is T2, OCT1 (Homo sapiens, UniProt O15245).
T2 construct: expressed in transfected cells
T2 sequence (O15245 1-554): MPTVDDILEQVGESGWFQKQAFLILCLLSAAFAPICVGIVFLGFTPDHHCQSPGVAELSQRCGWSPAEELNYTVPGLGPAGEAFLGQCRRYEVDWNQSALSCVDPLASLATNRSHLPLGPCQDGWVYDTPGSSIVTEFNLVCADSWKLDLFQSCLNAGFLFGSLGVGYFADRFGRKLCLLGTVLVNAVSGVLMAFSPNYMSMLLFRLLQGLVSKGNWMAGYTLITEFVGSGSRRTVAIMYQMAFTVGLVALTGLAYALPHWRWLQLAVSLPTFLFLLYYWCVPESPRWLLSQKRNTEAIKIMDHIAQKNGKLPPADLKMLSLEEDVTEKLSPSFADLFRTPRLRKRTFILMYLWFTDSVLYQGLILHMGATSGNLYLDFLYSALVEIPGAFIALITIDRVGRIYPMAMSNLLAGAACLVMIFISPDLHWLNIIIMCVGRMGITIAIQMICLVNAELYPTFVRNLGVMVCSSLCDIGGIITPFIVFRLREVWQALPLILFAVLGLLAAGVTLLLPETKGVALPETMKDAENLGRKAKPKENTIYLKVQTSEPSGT
More on the design: method as in PMID 14576340. Particulars: reference inhibitor; cited from earlier work.

Series [5] concerns the target T3, OCT3 (Homo sapiens, UniProt O75751).
T3 construct: expressed in transfected cells
T3 sequence (O75751 1-556): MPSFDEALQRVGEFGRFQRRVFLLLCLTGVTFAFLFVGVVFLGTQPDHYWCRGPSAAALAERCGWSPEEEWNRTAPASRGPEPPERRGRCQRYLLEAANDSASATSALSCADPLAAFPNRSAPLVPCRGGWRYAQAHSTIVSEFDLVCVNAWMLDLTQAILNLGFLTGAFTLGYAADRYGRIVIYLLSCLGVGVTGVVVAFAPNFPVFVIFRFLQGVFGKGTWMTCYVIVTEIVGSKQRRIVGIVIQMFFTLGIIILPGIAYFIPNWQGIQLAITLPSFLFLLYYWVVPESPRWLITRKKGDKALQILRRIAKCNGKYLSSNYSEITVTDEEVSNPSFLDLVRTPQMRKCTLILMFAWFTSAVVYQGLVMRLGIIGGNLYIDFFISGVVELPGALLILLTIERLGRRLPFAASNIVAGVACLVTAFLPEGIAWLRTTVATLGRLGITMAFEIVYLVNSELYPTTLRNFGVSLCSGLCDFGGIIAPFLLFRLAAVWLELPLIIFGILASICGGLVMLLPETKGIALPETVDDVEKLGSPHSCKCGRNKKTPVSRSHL
Details: method as in PMID 14576340. As to conditions: reference inhibitor; cited from earlier work.

Details of series [6]: method as in doi:10.1002/ejic.201200360. As to conditions: pH 7.4; cited from earlier work.
On the set-up of series [7]: method as in doi:10.1002/ejic.201200360. As to conditions: pure water; cited from earlier work.

Molecules are shown by their SMILES. Where two headings read alike, the source gives them in different places.

The IC50 is the concentration at which inhibition is half-maximal. Turning to `N.N.[Cl][Pt][Cl]` [Cisplatin, reference compound], the half-maximal inhibitory concentration (IC50) was found to be 26 ± 2.38 µM in series [1] (24 h exposure), 0.65 ± 0.08 µM in series [1] (72 h exposure), 68.8 ± 5.08 µM in series [2] (24 h exposure) and 8.14 ± 1.59 µM in series [2] (72 h exposure).
For `CCN1/C(=C/c2ccc3ccccc3[n+]2CC)C=Cc2ccccc21` [D-22, decynium-22], the figures for the IC50 in series [3], in series [4] and in series [5] were 1.13 ± 0.19 µM, 0.98 ± 0.31 µM and 0.09 ± 0.01 µM, respectively.
`NC(=S)N/N=C/c1ccccc1O` [STSC, salicylaldehyde thiosemicarbazone]: in series [6], the logD7.4 result is given as “+1.74”. Besides, the “pKa of the phenolic OH moiety” value in series [7] is 8.88.
